Measurements taken from ChEMBL document CHEMBL1201862, “PubChem BioAssay data set” (2004).
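Cells were grown in 96-well plates and exposed to each compound for 48 hours at five concentrations; endpoints were interpolated linearly between bracketing concentrations, or set to the highest concentration if not reached. GI50 marks 50% less growth.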 Calls of active or inactive are those of the source. No stated cut-off is given here; in the data, active = GI50 up to about 1.1 µM and inactive = higher.

Tests used:
Assay in all cases: growth of human tumour cells (NCI), 48 h
786-0 = test system: 786-0
A498 = test system: A498
A549 = test system: A549
ACHN = test system: ACHN
BT-549 = test system: BT-549
CAKI-1 = test system: CAKI-1
CCRF-CEM = test system: CCRF-CEM
COLO 205 = test system: COLO 205
DLD-1 = test system: DLD-1
DMS-114 = test system: DMS-114
DMS-273 = test system: DMS-273
DU-145 = test system: DU-145
EKVX = test system: EKVX
HCC 2998 = test system: HCC 2998
HCT-116 = test system: HCT-116
HCT-15 = test system: HCT-15
HL-60 = test system: HL-60
HOP-18 = test system: HOP-18
HOP-62 = test system: HOP-62
HOP-92 = test system: HOP-92
HT-29 = test system: HT-29
Hs-578T = test system: Hs-578T
IGROV-1 = test system: IGROV-1
K562 = test system: K562
KM-20L2 = test system: KM-20L2
KM12 = test system: KM12
LXFL 529 = test system: LXFL 529
M14 = test system: M14
M19-MEL = test system: M19-MEL
MDA-MB-231 = test system: MDA-MB-231
MDA-MB-435 = test system: MDA-MB-435
MDA-N = test system: MDA-N
MOLT-4 = test system: MOLT-4
Malme-3M = test system: Malme-3M
NCI-H226 = test system: NCI-H226
NCI-H23 = test system: NCI-H23
NCI-H460 = test system: NCI-H460
NCI-H522 = test system: NCI-H522
OVCAR-3 = test system: OVCAR-3
OVCAR-4 = test system: OVCAR-4
OVCAR-5 = test system: OVCAR-5
OVCAR-8 = test system: OVCAR-8
PC-3 = test system: PC-3
RPMI-8226 = test system: RPMI-8226
RXF 393 = test system: RXF 393
SF-268 = test system: SF-268
SF-295 = test system: SF-295
SF-539 = test system: SF-539
SK-MEL-28 = test system: SK-MEL-28
SK-MEL-2 = test system: SK-MEL-2
SK-MEL-5 = test system: SK-MEL-5
SK-OV-3 = test system: SK-OV-3
SN12C = test system: SN12C
SNB-19 = test system: SNB-19
SNB-75 = test system: SNB-75
SR = test system: SR
SW-620 = test system: SW-620
T47D = test system: T47D
TK-10 = test system: TK-10
U-251 = test system: U-251
UACC-257 = test system: UACC-257
UACC-62 = test system: UACC-62
UO-31 = test system: UO-31
XF498 = test system: XF498
LOX IMVI = test system: LOX IMVI
SNB-78 = test system: SNB-78
MCF7 = test system: MCF7
NCI/ADR-RES = test system: NCI/ADR-RES

Measured: GI50

CCOC(=O)C(CC(C)C)NC(=O)C(N)Cc1ccc(N(CCCl)CCCl)cc1 (centres undefined)
active: ACHN 0.333 µM | CCRF-CEM 0.104 µM | DMS-273 0.632 µM | HL-60 0.134 µM | MOLT-4 0.0637 µM | NCI-H460 0.0478 µM | SR 0.0232 µM
2.38 µM: HCT-15
inactive: 786-0 1.69 µM | A498 13.9 µM | A549 6.95 µM | BT-549 15.8 µM | CAKI-1 3.11 µM | COLO 205 4.22 µM | DLD-1 2.52 µM | DMS-114 1.69 µM | DU-145 4.9 µM | EKVX 17.9 µM | HCC 2998 7.35 µM | HCT-116 3.12 µM | HOP-18 4.24 µM | HOP-62 4.86 µM | HOP-92 3.18 µM | HT-29 2.13 µM | Hs-578T 18.6 µM | IGROV-1 13.7 µM | K562 1.58 µM | KM-20L2 3.33 µM | KM12 12.9 µM | LXFL 529 2.8 µM | M14 2.83 µM | M19-MEL 1.65 µM | MDA-MB-231 15.7 µM | MDA-MB-435 16.9 µM | MDA-N 12.6 µM | Malme-3M 1.75 µM | NCI-H226 9.71 µM | NCI-H23 1.57 µM | NCI-H522 2.66 µM | OVCAR-3 1.95 µM | OVCAR-4 1.6 µM | OVCAR-5 11.8 µM | OVCAR-8 4.91 µM | PC-3 10.9 µM | RPMI-8226 5.61 µM | RXF 393 2.01 µM | SF-268 3.56 µM | SF-295 4.39 µM | SF-539 2.57 µM | SK-MEL-28 4.81 µM | SK-MEL-2 4.83 µM | SK-MEL-5 5.62 µM | SK-OV-3 3.65 µM | SN12C 5.6 µM | SNB-19 12 µM | SNB-75 3.94 µM | SW-620 6.62 µM | T47D 2.35 µM | TK-10 9.71 µM | U-251 3.79 µM | UACC-257 10.3 µM | UACC-62 1.35 µM | UO-31 2.17 µM | XF498 1.52 µM

Cc1c(-c2coc(-c3ccccc3)n2)c(=O)n(-c2ccccc2)n1C
inactive: 786-0 > 100 µM | A498 > 100 µM | A549 > 100 µM | ACHN > 100 µM | CCRF-CEM > 100 µM | COLO 205 78.3 µM | DLD-1 > 100 µM | DMS-114 36.6 µM | DMS-273 > 100 µM | HCT-116 > 100 µM | HL-60 76.7 µM | HOP-62 > 100 µM | HOP-92 > 100 µM | HT-29 57.7 µM | IGROV-1 > 100 µM | KM-20L2 > 100 µM | KM12 > 100 µM | LOX IMVI > 100 µM | LXFL 529 58.1 µM | M14 > 100 µM | M19-MEL 56.2 µM | MOLT-4 25.6 µM | Malme-3M 98.6 µM | NCI-H226 94.4 µM | NCI-H23 > 100 µM | NCI-H460 > 100 µM | NCI-H522 29.1 µM | OVCAR-3 > 100 µM | OVCAR-4 > 100 µM | OVCAR-5 > 100 µM | OVCAR-8 44.6 µM | RPMI-8226 36.5 µM | SF-268 > 100 µM | SF-295 > 100 µM | SF-539 > 100 µM | SK-MEL-28 > 100 µM | SK-MEL-2 > 100 µM | SK-MEL-5 25.2 µM | SK-OV-3 > 100 µM | SN12C > 100 µM | SNB-19 > 100 µM | SNB-75 > 100 µM | SNB-78 > 100 µM | SR 45.5 µM | SW-620 37.8 µM | TK-10 > 100 µM | U-251 > 100 µM | UACC-257 49.7 µM | UO-31 84.7 µM | XF498 23 µM
active: CAKI-1 0.184 µM | HCC 2998 0.1 µM
> 100 µM: HCT-15

CCOC1CC2OC(=O)C1C=C2C(=O)OC (centres undefined)
27.7 µM: HCT-15
inactive: 786-0 29.2 µM | A498 > 100 µM | A549 > 100 µM | ACHN 27.8 µM | CAKI-1 22.3 µM | CCRF-CEM 16.8 µM | COLO 205 19.1 µM | DLD-1 23 µM | DMS-114 20.4 µM | EKVX > 100 µM | HCC 2998 > 100 µM | HL-60 19.6 µM | HOP-18 21.1 µM | HOP-62 > 100 µM | HOP-92 32.7 µM | HT-29 37.5 µM | IGROV-1 46.6 µM | K562 25.8 µM | KM-20L2 55.6 µM | KM12 54.5 µM | LOX IMVI 87.5 µM | LXFL 529 15.5 µM | M14 18.5 µM | M19-MEL 37.2 µM | MOLT-4 17.4 µM | Malme-3M 20.5 µM | NCI-H226 32.7 µM | NCI-H23 17.9 µM | NCI-H460 79.3 µM | NCI-H522 12 µM | OVCAR-3 28.4 µM | OVCAR-4 23.1 µM | OVCAR-5 > 100 µM | RPMI-8226 14.7 µM | SF-268 28.9 µM | SF-295 > 100 µM | SF-539 24.8 µM | SK-MEL-28 21 µM | SK-MEL-2 31.4 µM | SK-MEL-5 36.4 µM | SK-OV-3 > 100 µM | SNB-19 28 µM | SNB-78 37.2 µM | SW-620 21.9 µM | TK-10 37.8 µM | U-251 50.1 µM | UACC-257 27.7 µM | UACC-62 30.5 µM | UO-31 35.7 µM | XF498 23.6 µM

COC(=O)C[C@](O)(CCCC(C)(C)O)C(=O)O[C@@H]1C(OC)=C[C@]23CCCN2CCc2cc4c(cc2[C@H]13)OCO4 [OMACETAXINE MEPESUCCINATE]
0.217 µM: HCT-15
active: 786-0 0.893 µM | A498 0.0395 µM | ACHN 0.617 µM | CAKI-1 0.203 µM | CCRF-CEM 0.0215 µM | COLO 205 0.218 µM | DLD-1 0.0231 µM | DMS-114 0.0047 µM | DMS-273 0.00679 µM | DU-145 0.741 µM | EKVX 0.133 µM | HCC 2998 0.0583 µM | HL-60 0.0325 µM | HOP-18 0.06 µM | HOP-62 0.0597 µM | HOP-92 0.0869 µM | HT-29 0.115 µM | Hs-578T 1.07 µM | IGROV-1 0.129 µM | K562 0.0397 µM | KM-20L2 0.0192 µM | KM12 0.142 µM | LOX IMVI 0.0444 µM | M19-MEL 0.0194 µM | MCF7 0.015 µM | MOLT-4 0.0123 µM | Malme-3M 0.0568 µM | NCI-H226 0.09 µM | NCI-H23 0.0528 µM | OVCAR-4 0.342 µM | OVCAR-5 0.494 µM | OVCAR-8 0.146 µM | RPMI-8226 0.0388 µM | RXF 393 0.107 µM | SF-268 0.149 µM | SF-295 0.152 µM | SF-539 0.056 µM | SK-MEL-28 0.111 µM | SK-MEL-2 0.259 µM | SK-MEL-5 0.117 µM | SK-OV-3 0.122 µM | SN12C 0.121 µM | SNB-19 0.0706 µM | SNB-75 0.102 µM | SNB-78 0.0682 µM | SR 0.0327 µM | SW-620 0.0682 µM | T47D 0.383 µM | U-251 0.0571 µM | UACC-62 0.113 µM | UO-31 0.546 µM | XF498 0.00914 µM
inactive: BT-549 3.6 µM | M14 1.21 µM | MDA-MB-231 1.7 µM | MDA-MB-435 4.46 µM | MDA-N 2.42 µM | NCI/ADR-RES 3.87 µM | PC-3 3.01 µM | TK-10 3.74 µM
